Assay results published in ChEMBL document CHEMBL1201862, “PubChem BioAssay data set” (2004).
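Interpolation was linear, between the two tested concentrations surrounding the appropriate level; five concentrations were tested over 48 hours in 96-well plates. Here, GI50 denotes the concentration required for 50% inhibition of growth.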 Activity calls are given as the source filed them. Cut-off read from the data, not from the text of the source: active = GI50 up to about 1.1 µM and inactive = higher.

What was measured:
Assay in all cases: inhibition of tumour cell growth, NCI panel, 48 h
A498 = system: A498
PC-3 = system: PC-3
HOP-92 = system: HOP-92
MCF7 = system: MCF7
SNB-75 = system: SNB-75
SK-MEL-2 = system: SK-MEL-2
RXF 393 = system: RXF 393
HT-29 = system: HT-29
SK-OV-3 = system: SK-OV-3
SR = system: SR
DU-145 = system: DU-145
NCI-H23 = system: NCI-H23
HL-60 = system: HL-60
HCC 2998 = system: HCC 2998
COLO 205 = system: COLO 205
MOLT-4 = system: MOLT-4
HCT-116 = system: HCT-116
K562 = system: K562

Measured: GI50

O=c1cc(-c2ccc(O)c(O)c2)oc2cc(O[C@H]3O[C@H](CO)[C@@H](O)[C@H](O)[C@H]3O)cc(O)c12
inactive: A498 78.2 µM | PC-3 70.6 µM | HOP-92 > 100 µM | MCF7 > 100 µM | SNB-75 20.2 µM | SK-MEL-2 99.8 µM | RXF 393 > 100 µM | HT-29 67.8 µM | SK-OV-3 > 100 µM | SR 5.69 µM | DU-145 > 100 µM | NCI-H23 > 100 µM | HL-60 37.7 µM | HCC 2998 > 100 µM | COLO 205 > 100 µM | MOLT-4 21.4 µM | HCT-116 28.8 µM

CC(=O)Nc1ccc2nc(-c3ccccn3)c(-c3ccccn3)nc2c1
inactive: A498 > 100 µM | PC-3 > 100 µM | HOP-92 > 100 µM | MCF7 > 100 µM | SNB-75 > 100 µM | SK-MEL-2 > 100 µM | RXF 393 89.7 µM | SR > 100 µM | DU-145 > 100 µM | HL-60 > 100 µM | HCC 2998 > 100 µM | COLO 205 > 100 µM | K562 > 100 µM | MOLT-4 > 100 µM

CC(C)OC(=O)C1=C2c3ncccc3C(=O)N2[C@@H](Cl)[C@H](Cl)[C@H]1Cl
inactive: A498 > 100 µM | PC-3 56.6 µM | HOP-92 46.3 µM | MCF7 39.1 µM | SK-MEL-2 > 100 µM | RXF 393 > 100 µM | HT-29 > 100 µM | SR 26.5 µM | DU-145 > 100 µM | NCI-H23 46.2 µM | HL-60 38.2 µM | HCC 2998 > 100 µM | COLO 205 44 µM | K562 30.5 µM | MOLT-4 22.5 µM | HCT-116 50.6 µM

CSc1ncc2c(n1)-c1ccccc1OC2N1CCCC1 (configuration not stated)
inactive: A498 11.8 µM | PC-3 57.3 µM | HOP-92 > 100 µM | MCF7 71.3 µM | SNB-75 41.7 µM | SK-MEL-2 > 100 µM | RXF 393 64.6 µM | HT-29 > 100 µM | SK-OV-3 > 100 µM | SR > 100 µM | DU-145 > 100 µM | NCI-H23 > 100 µM | HL-60 52.7 µM | COLO 205 > 100 µM | K562 60.1 µM | MOLT-4 79.8 µM | HCT-116 > 100 µM

Cc1nc(-c2ccc([N+](=O)[O-])cc2)cn2c1nc1ccccc12
inactive: A498 > 100 µM | PC-3 > 100 µM | HOP-92 70.5 µM | MCF7 58.3 µM | SNB-75 24.6 µM | SK-MEL-2 31.1 µM | RXF 393 41.6 µM | HT-29 > 100 µM | SK-OV-3 18.9 µM | SR > 100 µM | DU-145 > 100 µM | NCI-H23 > 100 µM | HL-60 > 100 µM | COLO 205 > 100 µM | K562 > 100 µM | MOLT-4 > 100 µM | HCT-116 > 100 µM

COC1(OC)N=C(N)C2(C#N)C(c3ccccc3)NC3=C(CCC3)C12C#N (configuration not stated)
inactive: A498 > 100 µM | PC-3 > 100 µM | HOP-92 > 100 µM | MCF7 > 100 µM | SK-MEL-2 > 100 µM | RXF 393 > 100 µM | HT-29 > 100 µM | SK-OV-3 > 100 µM | SR > 100 µM | DU-145 > 100 µM | NCI-H23 > 100 µM | HL-60 > 100 µM | HCC 2998 > 100 µM | COLO 205 > 100 µM | MOLT-4 > 100 µM | HCT-116 > 100 µM
